Source: PMC7278553, “Blocking interaction between SHP2 and PD‐1 denotes a novel opportunity for developing PD‐1 inhibitors” (EMBO Molecular Medicine, 2020)

Target: T1, SHP2 (Homo sapiens, UniProt Q06124)
T1 construct: gene PTPN11; recombinant hSHP2-FC (R&D Systems, 1894-SH-100)
T1 sequence (Q06124 2-593): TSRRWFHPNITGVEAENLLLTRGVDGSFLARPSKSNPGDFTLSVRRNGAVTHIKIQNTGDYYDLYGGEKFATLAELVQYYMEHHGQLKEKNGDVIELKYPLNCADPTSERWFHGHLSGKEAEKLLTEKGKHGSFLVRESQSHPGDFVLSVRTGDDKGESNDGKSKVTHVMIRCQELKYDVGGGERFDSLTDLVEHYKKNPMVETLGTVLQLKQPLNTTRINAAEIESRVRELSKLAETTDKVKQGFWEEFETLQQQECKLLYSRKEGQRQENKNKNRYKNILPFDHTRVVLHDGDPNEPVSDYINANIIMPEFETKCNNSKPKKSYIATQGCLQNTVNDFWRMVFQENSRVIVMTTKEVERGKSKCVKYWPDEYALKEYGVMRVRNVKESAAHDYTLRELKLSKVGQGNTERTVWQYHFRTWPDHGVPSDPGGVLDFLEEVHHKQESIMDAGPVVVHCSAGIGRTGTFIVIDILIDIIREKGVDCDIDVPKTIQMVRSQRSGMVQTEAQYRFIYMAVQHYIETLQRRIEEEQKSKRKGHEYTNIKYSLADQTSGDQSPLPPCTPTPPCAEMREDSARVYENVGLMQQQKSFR
T1 sequence (Q15116 235-264 partner): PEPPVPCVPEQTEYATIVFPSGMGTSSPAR
Test: ELISA: MB blocks binding of purified recombinant SHP2-Fc to coated phospho-ITSM PD-1 peptide; supported by co-IP and split-luciferase complementation in cells
Assay type: biochemical

CN(C)c1ccc2nc3ccc(N(C)C)cc3[s+]c2c1 [MB, 3,7‐bis(dimethylamino)‐5‐phenothiazinium chloride]
ELISA: MB blocks binding of purified recombinant SHP2-Fc to coated phospho-ITSM: MB dose‐dependently blocked the binding of SHP2 protein to coated Pep‐ITSM‐p248Y, unequivocally showing that MB directly blocked interaction
